# From US4831026A, “2-oxa-isocephem compounds, compositions containing same and processes of using” (Otsuka Pharmaceutical Co., Ltd., priority 1985, dated 1989)
# Read-outs that look alike come from different tables or passages of the source.
# What was measured:
# P. mirabilis 1287 = experiment: Antimicrobial activity test: MIC by the agar plate dilution method, P. mirabilis 1287; format: cell-based; settings: P. mirabilis 1287; inoculum 1×10^6 cells/ml
# Method: (§1) In order to investigate the in vitro activity of the under-mentioned compounds against various bacteria, the minimal inhibitory concentration (MIC) values were determined by the agar plate dilution method [see Chemotherapy, 22, 1126-1128 (1974)].
# (§2) Each test inoculum was adjusted to 1×10^6 cells/ml (O.D., 600 mμ: 0.07-0.16).
# E. coli No. 29 = experiment: Antimicrobial activity test: MIC by the agar plate dilution method, E. coli No. 29; format: cell-based
# Method: as §1, §2
# S. marcescens IFO-12648 = experiment: Antimicrobial activity test: MIC by the agar plate dilution method, S. marcescens IFO-12648; format: cell-based
# Method: as §1, §2
# K. pneumoniae NCTC-9632 = experiment: Antimicrobial activity test: MIC by the agar plate dilution method, K. pneumoniae NCTC-9632; format: cell-based; settings: inoculum 1×10^6 cells/ml
# Method: as §1, §2
# P. aeruginosa NCTC-10490 = experiment: Antimicrobial activity test: MIC by the agar plate dilution method, P. aeruginosa NCTC-10490; format: cell-based; settings: inoculum 1×10^6 cells/ml
# Method: as §1, §2
# S. aureus FDA-209-p = experiment: Antimicrobial activity test: MIC by the agar plate dilution method, S. aureus FDA-209-p; format: cell-based, Staphylococcus aureus; settings: inoculum 1×10^6 cells/ml
# Method: as §1, §2
# M. morganii ATCC-25830 = experiment: Antimicrobial activity test: MIC by the agar plate dilution method, M. morganii ATCC-25830; format: cell-based; settings: inoculum 1×10^6 cells/ml
# Method: as §1, §2
# [1] = E. coli No. 29, inoculum 1×10^6 cells/ml
# [2] = S. marcescens IFO-12648, inoculum 1×10^6 cells/ml
Substance,MIC (P. mirabilis 1287) [µg/mL],MIC (E. coli No. 29; [1]) [µg/mL],MIC (S. marcescens IFO-12648; [2]) [µg/mL],MIC (K. pneumoniae NCTC-9632) [µg/mL],MIC (P. aeruginosa NCTC-10490) [µg/mL],MIC (S. aureus FDA-209-p) [µg/mL],MIC (M. morganii ATCC-25830) [µg/mL],MIC (S. marcescens IFO-12648) [µg/mL],MIC (E. coli No. 29) [µg/mL]
"Benzyl 7-[2-(2-chloroacetamidothiazol-4-yl)-2allyloxyiminoacetamido]-3-[(1,3,4-thiadiazol-2-yl)thiomethyl]-Δ^3 -O-2-isocephem-4-carboxylate (syn-isomer) [Example 14]",≤ 0.025,0.05,0.1,0.1,3.13,–,–,–,–
"Benzhydryl 7-[2-(2-tritylaminothiazol-4-yl)-2-[(2-butenyl)oxyimino]acetamido]-3-[(1,3,4-thiadiazol-2-yl)thiomethyl]-Δ^3 -O-2-isocephem-4-carboxylate (syn-isomer) [Example 37]",0.2,0.2,1.56,0.39,1.56,0.78,0.78,–,–
"Benzhydryl 7-[2-(2-formamidothiazol-4-yl)-2-(2-chloroethoxy)iminoacetamido-]-3-[(1,3,4-thiadiazol-2-yl)thiomethyl]-Δ^3 -O-2-isocephem-4-carboxylate (syn-isomer) [Example 32]",0.05,0.05,–,0.1,–,0.39,0.1,0.78,–
"Benzhydryl 7-[2-(2-tritylaminothiazol-4-yl)-2-propargyloxyiminoacetamido]-3-[(1,3,4-thiadiazol-2-yl)thiomethyl]-Δ^3 -O-2-isocephem-4-carboxylate (syn-isomer) [Example 21]",≤ 0.025,0.1,–,0.2,3.13,3.13,0.05,0.39,–
"Benzyl 7-[2-(2-chloroacetamidothiazol-4-yl)-2-(tert-butoxycarbonylmethoxyimino)acetamido]-3-[(1,3,4-thiadiazol-2-yl)thiomethyl]-Δ^3 -O-2-isocephem-4carboxylate (syn-isomer) [Example 2]",≤ 0.025,0.05,0.2,0.2,3.13,0.78,≤ 0.025,–,–
"Benzhydryl 7-[2-(2-tritylaminothiazol-4-yl)-2-[(3-butenyl)oxyimino]acetamido]-3-[(1,3,4-thiadiazol-2-yl)thiomethyl]-Δ^3 -O-2-isocephem-4-carboxylate (syn-isomer) [Example 39]",0.2,0.2,–,0.2,1.56,–,0.39,0.78,–
"Benzhydryl 7-[2-(2-tritylaminothiazol-4-yl)-2-cyclopropylmethyloxyiminoacetamido]-3-[(1,2,3-thiadiazol-5-yl)thiomethyl]-Δ^3 -O-2-isocephem-4-carboxylate (syn-isomer) [Example 53]",0.1,0.05,–,–,0.39,–,0.05,0.78,–
"Benzhydryl (6S,7S)-7-[2-(2-tritylaminothiazol-4-yl)-2-cyclopropylmethyloxyiminoacetamido]-3-[(1,2,3-thiadiazol-5-yl)thiomethyl]-Δ^3 -O-2-isocephem-4-carboxylate (syn-isomer) [Example 63]",≤ 0.025,≤ 0.025,0.05,≤ 0.025,0.78,–,–,–,–
"Benzhydryl (6S,7S)-7-[2-(2-aminothiazol-4-yl)-2-cyclopropylmethyloxyiminoacetamido]-3-[(1,2,3-thiadiazol-5-yl)thiomethyl]-Δ^3 -O-2-isocephem-4-carboxylate (syn-isomer) [Example 64]",≤ 0.025,≤ 0.025,0.05,≤ 0.025,1.56,–,≤ 0.025,–,–
"Benzhydryl 7-[2-(2-tritylaminothiazol-4-yl)-2-allyloxyiminoacetamido]-3-[(1,3,4-thiadiazol-2-yl)thiomethyl]-Δ^3 -O-2-isocephem-4-carboxylate (syn-isomer) [Example 43]",0.1,–,6.25,0.78,50,–,1.56,–,0.39
"Benzhydryl (6S,7S)-7-[2-(2-tritylaminothiazol-4-yl)-2-methoxyiminoacetamido]-3-[(1,3,4-thiadiazol-2-yl)thiomethyl]-Δ^3 -O-2-isocephem-4-carboxylate (syn-isomer) [Example 58]",≤ 0.025,≤ 0.025,–,≤ 0.025,25,0.39,–,0.39,–
Benzyl 7-[2-(2-chloroacetamidothiazol-4-yl)-2-methoxyiminoacetamido]-3-[(carbamoyloxy)methyl]-Δ^3 -O-2-isocephem-4-carboxylate (syn-isomer) [Example 1],≤ 0.025,≤ 0.025,0.1,–,3.13,–,–,–,–
"Benzhydryl 7-[2-(2-tritylaminothiazol-4-yl)-2 -methoxyiminoacetamido]-3-[(1,2,3-thiadiazol-5-yl)thiomethyl]-Δ^3 -O-2-isocephem-4-carboxylate (syn-isomer) [Example 51]",≤ 0.025,≤ 0.025,0.1,≤ 0.025,0.78,–,≤ 0.025,–,–
"Benzhydryl 7-[2-(2-tritylaminothiazol-4-yl)-2-cyanomethyloxyiminoacetamido]-3-[(1,2,3-thiadiazol-5-yl)thiomethyl]-Δ^3 -O-2-isocephem-4-carboxylate (syn-isomer) [Example 52]",0.1,0.1,–,0.2,0.39,–,0.05,0.78,–
"7-[2-(2-Chloroacetamidothiazol-4-yl)-2-methoxyiminoacetamido]-3-[(1,3,4-thiadiazol-2-yl)thiomethyl]-Δ^3 -O-2-isocephem-4-carboxylic acid (syn-isomer) [Example 11]",≤ 0.025,0.05,0.2,0.2,6.25,–,≤ 0.025,–,–
"7-[2-(2-Aminothiazol-4-yl)-2-(2-fluoroethoxy)iminoacetamido]-3-[(1,3,4-thiadiazol-2-yl)thiomethyl-]-Δ^3 -O-2-isocephem-4-carboxylic acid trifluoroacetate (syn-isomer) [Example 49]",≤ 0.025,≤ 0.025,0.1,≤ 0.025,1.56,–,≤ 0.025,–,–
"Benzhydryl (6S,7S)-7-[2-(2-tritylaminothiazol-4-yl)- 2-cyanomethoxyiminoacetamido]-3-[(1,3,4-thiadiazol-2-yl)thiomethyl]-Δ^3 -O-2-isocephem-4-carboxylate (syn-isomer) [Example 61]",≤ 0.025,0.05,–,0.05,3.13,–,≤ 0.025,0.78,–
"Benzhydryl 7-[2-(2-tritylaminothiazol-4-yl)-2-benzyloxyiminoacetamido]-3-[(1,3,4-thiadiazol-2-yl)thiomethyl]-Δ^3 -O-2-isocephem-4-carboxylate (syn-isomer) [Example 47]",≤ 0.025,≤ 0.025,0.1,≤ 0.025,3.13,–,≤ 0.025,–,–
"(6S,7S)-7-[2-(2-Aminothiazol-4-yl)-2-cyclopropylmethyloxyiminoacetamido]-3- [(1,2,3-thiadiazol-5-yl)thiomethyl]-Δ^3 -O-2-isocephem-4-carboxylic acid (syn-isomer) [Example 65]",0.2,0.1,–,0.39,0.78,–,0.05,0.78,–
"Benzyl 7-[2-(2-chloroacetamidothiazol-4-yl)-2-methoxyiminoacetamido]-3-[(1,3,4-thiadiazol-2-yl)thiomethyl]-Δ^3 -O-2-isocephem-4-carboxylate (syn-isomer) [Example 10]",0.1,–,–,0.39,–,0.39,0.2,0.39,0.39
"7-[2-(2-Aminothiazol-4-yl)-2-[(pyrazol-3-yl)methoxyiminoacetamido]-3-[(1,3,4-thiadiazol-2-yl)thiomethyl]-Δ^3 -O-2-isocephem-4-carboxylic acid dihydrochloride (syn-isomer) [Example 24]",≤ 0.025,–,–,0.39,12.5,–,0.1,0.39,0.39
